Experimental data published in PubChem BioAssay AID179 (DTP/NCI, 2004).
Several values for one entry are separate records, joined by “and”; a condition that tells them apart may be missing. Equal values may be shown once. Activity calls are given as the source filed them.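 The calls were made as follows: active = compounds giving half or more protection of infected cells from virus-caused growth loss, again on retest; inactive = the rest.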

Test system: CEM cells HIV-1 protection, formazan growth assay
Test: NCI AIDS Antiviral Assay
Details: for IC50: measured here: growth of uninfected CEM cells
Summary of the method: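 Protection of CEM cells against HIV-1 was scored from cell growth (soluble formazan) across five concentrations, with parallel uninfected cells. Lack of protection may reflect toxicity.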

Row | Structure (SMILES) | outcome | EC50 | IC50
1 | CC1(C)OC2CN(C(=O)OCc3ccccc3)C(CO)C2O1 (stereo unspecified) | inactive |  | 
2 | COc1cc2c(c(OC)c1OC)-c1ccc(OC)c(=O)cc1[C@@H](NC(=O)c1ccccc1)CC2 |  | > 0.2 µM | 0.00339 µM
3 | COc1ccc(C2C(=O)C(Cl)N2Nc2nc(C)cc(=O)[nH]2)cc1OC (stereo unspecified) |  | > 186 µM | 20.4 µM
4 | CCCC(CC)c1cc(O)c(O)cc1C(CC)CCC (stereo unspecified) |  | > 200 µM | 105 µM
5 | COc1ccc(-n2sc3ncc(-c4ccccc4)cc3c2=O)cc1 |  | 7.08 µM | 35.5 µM
6 | CC(C)(C)c1ccc(O)c(C(c2ccc([N+](=O)[O-])cc2)c2cc(C(C)(C)C)ccc2O)c1 |  | > 200 µM | 3.55 µM
7 | N#C/C(=C\c1ccc2[nH]ccc2c1)C(=O)c1ccc(O)c(O)c1 |  | > 589 µM | 102 µM
8 | Cc1c(O)c(O)c(C)c(CCN)c1O |  | > 200 µM | 11 µM
9 | O=C1c2ccccc2C(=O)N1CC[P+](c1ccccc1)(c1ccccc1)c1ccccc1 |  | > 200 µM | > 200 µM and 107 µM
10 | CC1(C)OCC(C2OC3OC(C)(C)OC3C2c2ccccc2)O1 (stereo unspecified) |  | > 200 µM | > 200 µM
11 | COC(=O)OCC1C=CC(n2cnc3c(Cl)ncnc32)CC1 (stereo unspecified) |  | > 200 µM | 11.5 µM
12 | O=C(/C=C/c1cc(O)c(O)c(O)c1)OCCc1ccccc1 |  | > 50.1 µM | 15.5 µM
13 | COc1ccccc1NC(=O)C1=C(C)NC(C)=C(C(=O)Nc2ccccc2OC)C1c1ccc([N+](=O)[O-])cc1 |  | > 9.77 µM | > 9.77 µM
14 | CCOC(=O)C1=C(NNC(=O)Cc2ccccc2)CSC1=Nc1ccccc1 |  | > 18.2 µM | > 18.2 µM
15 | CCc1ccccc1NC(=O)/C(CC(=O)c1c(C)n([O-])c2ccccc2[n+]1=O)=N\NS(=O)(=O)c1ccc(C)cc1 |  | > 23.4 µM | 13.5 µM
16 | Nc1nc2n[nH]nc2c(=O)[nH]1 |  | > 89.1 µM | 0.302 µM
17 | CSc1ccc(C2OC(=O)c3ccccc32)c2ccccc12 (stereo unspecified) |  | > 17 µM | > 17 µM
18 | C[C@]12OC[C@H](c3ccccc3)N1C(=O)C1[C@H]2CC12SCCS2 (stereo partly specified) |  | > 200 µM | 178 µM
19 | CN(C)CCNC(=O)Cn1ccc(=O)c2c([N+](=O)[O-])cccc21 |  | > 200 µM | > 200 µM
20 | O=C(c1ccco1)N(C(=O)N1CCC(c2ccccc2)CC1)c1ccccc1 |  | > 200 µM | 29.5 µM
21 | COCn1c(=O)n(C)c(=O)c2c1nc1c(c(=O)n(C)c(=O)n1COC)[n+]2[O-] |  | > 200 µM | 5.25 µM
22 | NNC(=O)/C(NC(=O)c1ccccc1)=C(\N)c1cccc([N+](=O)[O-])c1 |  | > 15.1 µM | > 15.1 µM
23 | O=c1cc(O)c2ccccc2o1 |  | > 1550 µM | 617 µM

Row | Structure (SMILES) | outcome | EC50 | IC50
24 | CC(=O)CC1(O)C(=O)Nc2ccccc21 (stereo unspecified) |  | > 200 µM | > 200 µM
25 | CCOC(=O)/C(C#N)=C/c1ccc(OC)cc1 |  | > 155 µM | > 155 µM
26 | Cc1cc(C(=O)c2ccccc2)c2oc(-c3ccccc3)c(Cl)c(=O)c2c1 |  | > 47.9 µM | > 47.9 µM
27 | CC1=C(C(=O)Nc2cc(F)c(F)cc2F)C(c2ccc([N+](=O)[O-])cc2)C(C(=O)Nc2cc(F)c(F)cc2F)=C(C)N1 |  | > 77.6 µM | 72.4 µM
28 | Cn1c(=O)c2nc(-c3ccccc3)oc2n(C)c1=O | inactive |  | 
29 | C=C1C2CC3CCC2C(OC(=O)c2ccccc2C(=O)O)C13 (stereo unspecified) |  | > 200 µM | > 200 µM
30 | COc1ccc(NC(=O)CSc2nnc(Cc3ccccc3)o2)cc1 |  | > 100 µM | 23.4 µM
31 | O=c1[nH]c(=O)n(C2OC(CO)C(O)C2O)c2ncncc12 (stereo unspecified) |  | > 200 µM | > 200 µM
32 | O=S(=O)(OI(O)CC(F)(F)F)C(F)(F)F |  | > 200 µM | > 200 µM
33 | Cc1ccc2c(c1)C1(c3ccc(Cl)cc3)Oc3ccc(C)cc3C(c3ccc(Cl)cc3)(O2)O1 |  | > 75.9 µM | > 75.9 µM
34 | Nc1nc2c(ncn2C2CC(CO)C(CO)C2)c(=O)[nH]1 (stereo unspecified) |  | > 224 µM | > 224 µM
35 | O=c1nc2sc3ccc4ccccc4c3n2[nH]c1=O |  | > 47.9 µM | > 47.9 µM
36 | O=C1C(Cl)N(c2ccccc2)C1c1c[nH]c2ccccc12 (stereo unspecified) |  | > 316 µM | 288 µM
37 | CCOC(=O)CC(N1CC1)N1CC1 |  | > 200 µM | > 200 µM
38 | O=C(CC(=O)c1cccc2ccccc12)C(=O)NC1C2CC3CC(C2)CC1C3 (stereo unspecified) | inactive |  | 
39 | NC1=CN2c3ccccc3N(CC(=O)N3CCOCC3)C2C=C1 (stereo unspecified) |  | > 200 µM | > 200 µM
40 | CC1=NS(=O)(=O)c2ccccc2N1 |  | > 1260 µM | > 1260 µM
41 | Nc1ccc(O)c(C(=O)[O][Sn]([c]2ccccc2)([c]2ccccc2)[c]2ccccc2)c1 |  | > 2 µM | 0.129 µM
42 | Cc1c(CN2CCCC2)c(O)c2c(=O)c3c(O)c(CN4CCCC4)c(O)c4c5c(O)c(CN6CCCC6)c(O)c6c(=O)c7c(O)c(CN8CCCC8)c(C)c8c1c2c(c34)c(c78)c65 |  | > 17.8 µM | > 17.8 µM
43 | C1=Cc2ccccc2/C1=C/c1cc2c3c(c1)CCCN3CCC2 |  | > 43.7 µM | > 43.7 µM
44 | CC12CCCC(C#N)(C1)OC2=O (stereo unspecified) | inactive |  | 
45 | c1ccc(CSCSCc2ccccc2)cc1 | inactive |  | 
46 | CC(C)N=c1cc2n(-c3ccc(Cl)cc3)c3ccccc3nc-2cc1Nc1ccc(Cl)cc1 |  | > 100 µM | 9.12 µM

Row | Structure (SMILES) | outcome | EC50 | IC50
47 | COC(=O)[C@H](C)NC(=O)[C@H](NS(=O)(=O)c1nc2ccccc2s1)c1ccccc1 |  | > 200 µM | 37.2 µM
48 | COc1ccccc1N1CCCSC1=Nc1ccccc1 |  | 81.3 µM | 214 µM
49 | O=Cc1c(O)c2ccccc2[nH]c1=O |  | > 5.5 µM | > 5.5 µM
50 | O=C(CO[N+](=O)[O-])OCC(=O)c1ccccc1 | inactive |  | 
51 | CC(=O)Nc1sc([N+](=O)[O-])cc1S(=O)(=O)c1ccc(Cl)cc1 |  | > 200 µM | 1.48 µM
52 | O=C(NCCCN1CCCCCC1)C(c1ccccc1)C1CCCCC1 (stereo unspecified) |  | > 200 µM | 36.3 µM
53 | Cc1ccccc1N(CC(=O)O)S(=O)(=O)c1ccccc1 | inactive |  | 
54 | COc1cccc(C=NC23CC4CC(CC(C4)C2)C3)c1 |  | > 69.2 µM | > 69.2 µM
55 | COc1c(C)c(C/C=C(\C)CCCCO[Si](c2ccccc2)(c2ccccc2)C(C)(C)C)c(OC)c(OC)c1OC |  | > 200 µM | 93.3 µM
56 | CCOC(=O)c1nc2ccc([N+](=O)[O-])cc2c2c1CCO2 |  | > 63.1 µM | > 63.1 µM
57 | Cc1cc2c(C(C)C)c(O)c(O)c(C=O)c2c(O)c1-c1c(C)cc2c(C(C)C)c(O)c(O)c(C=Nc3ccccc3SSc3ccccc3N)c2c1O |  | > 200 µM | 24.5 µM
58 | O=C(O)CN1C(=O)C(=O)c2cc([N+](=O)[O-])ccc21 |  | > 200 µM | > 200 µM
59 | C/C=C/C(=O)[O-].C/C=C/C(=O)[O-].N.N.N.N.[Co+3].[O-][Cl+3]([O-])([O-])[O-] | inactive |  | 
60 | O=C(CC(C(=O)c1ccsc1)c1ccc2c(c1)OCO2)c1ccccc1 (stereo unspecified) |  | > 200 µM | > 200 µM
61 | CCOC(=O)Cc1nc(Cl)c2c(C)c(C)sc2n1 |  | > 174 µM | 38.9 µM
62 | CCOC(=O)CSc1nnc(C(Sc2nc(-c3ccccc3)c(-c3ccccc3)[nH]2)C(C)C)n1-c1ccccc1 (stereo unspecified) |  | > 24 µM | > 24 µM
63 | CC(=O)NC1=NC(=O)/C(=C\c2cccc(Cl)c2Cl)N1C |  | > 200 µM | 81.3 µM
64 | N#C/C1=C(\C#N)N=Cc2ccccc2NCCNc2ccccc2C=N1 |  | > 200 µM | > 200 µM
65 | OC12CC/C(=N/OCc3ccccc3)CC1c1ccccc12 (stereo unspecified) |  | > 162 µM | 148 µM
66 | CCOC(=O)C(C)NC(=O)NC12CC3CC(CC(F)(C3)C1)C2 (stereo unspecified) |  | > 219 µM | > 200 µM
67 | O=C(O)Cc1ccc(Nc2nc3ccccc3nc2C(=O)O)cc1 |  | > 200 µM | > 200 µM
68 | CC(OC(=O)C(CC(=O)OC(C)(C)C)NC(=O)OC(C)(C)C)C(=O)OCc1ccccc1 (stereo unspecified) |  | > 200 µM | > 200 µM
69 | COC(=O)C1C2CC3C(OC(=O)C31)C2OC(=O)[C@](OC)(c1ccccc1)C(F)(F)F (stereo partly specified) |  | > 83.2 µM | > 83.2 µM

Row | Structure (SMILES) | outcome | EC50 | IC50
70 | O=C(CCN(C(=O)O)S(=O)(=O)c1ccc(NC(=O)c2ccccc2)cc1)Nc1ccccc1 |  | > 537 µM | > 537 µM
71 | CON(C)c1nc(N)c(C#N)c(C#N)c1C#N |  | > 200 µM | 35.5 µM
72 | COC(=O)c1cc(-c2c[nH]cc2C(=O)OCc2ccccc2)cn1S(=O)(=O)c1ccc(C)cc1 |  | > 200 µM | 17.8 µM
73 | C/C(=N/N)c1ccc2[nH]c3c(C)cc([N+](=O)[O-])c(C)c3c2c1 |  | > 24.5 µM | 4.9 µM
74 | CCOC(=O)C1(C(=O)OCC)OC(C)=NC1(C(=O)OC)C(=O)OC |  | > 200 µM | > 200 µM
75 | O=C1OC2C=CC1C1C(=O)OC(=O)C21 (stereo unspecified) |  | > 200 µM | > 200 µM
76 | Cc1ccc(N(C=O)c2c([N+](=O)[O-])cc([N+](=O)[O-])c3c2=[N+]([O-])CN=3)cc1 |  | > 7.59 µM | > 7.59 µM
77 | Nc1nc(Cl)c(N)c(NCC2(CO)CCC(OCc3ccccc3)C2)n1 (stereo unspecified) |  | > 200 µM | 26.9 µM
78 | O=S1(=O)OC2(CCCCC2)c2ccccc21 |  | > 209 µM | > 209 µM
79 | CC(=O)OCC1OC(Nc2cc(=O)[nH]c(=O)[nH]2)C(OC(C)=O)C(OC(C)=O)C1OC(C)=O (stereo unspecified) | inactive |  | 
80 | CC(=O)OC12CCCC(=O)C1C1CC/C=C\CCC12 (stereo unspecified) |  | > 170 µM | 105 µM
81 | O=C(N/C(=C\c1cc(Cl)ccc1Cl)c1nc2ccc(Cl)cc2[nH]1)c1ccccc1 | inactive |  | 
82 | CCCCCCCCCCCC[N+](CCCCCCCCCCCC)=C1SCCS1 | inactive |  | 
83 | CC(=O)C(N)=NCc1ccccc1 |  | > 1410 µM | 1020 µM
84 | COC(=O)C1=C(C(=O)OC)SC(=Cc2ccccc2C=C2SC(C(=O)OC)=C(C(=O)OC)S2)S1 | inactive |  | 
85 | C=C(C)CNC(=S)N(N)c1ccc2ccccc2c1 |  | > 200 µM | 58.9 µM
86 | CN(C(=O)C12C3C4C1C1C2C3C41C(=O)N(C)C(C)(C)C)C(C)(C)C (stereo unspecified) |  | > 30.2 µM | > 30.2 µM
87 | CCOC(=O)c1sc(C(=O)O)cc1-c1cccs1 |  | 234 µM | 501 µM
88 | Cc1ccc(S(=O)(=O)N/N=C2/CCC3(O)CC2(C)CCC2[C@H]3CC2(C)C)cc1 (stereo partly specified) |  | > 200 µM | 33.9 µM
89 | COC(=O)c1c(C)cc(C)cc1OC |  | > 200 µM | 151 µM
